#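 All cell lines were grown in 96-well plates and treated with compound for 48 hours. GI50 marks 50% less growth. At the TGI there is no net growth.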
# Legend:
# Assay in all cases: growth of human tumour cells (NCI), 48 h
# M14 melanoma = system: M14 melanoma
# NCI-H460 lung = system: NCI-H460 lung
# IGROV1 ovarian = system: IGROV1 ovarian
# SN12C renal = system: SN12C renal
# UACC-62 melanoma = system: UACC-62 melanoma
# A549 NSCLC = system: A549 NSCLC
# NCI-H522 lung = system: NCI-H522 lung
# SF-539 CNS = system: SF-539 CNS
# UO-31 renal = system: UO-31 renal
# BT-549 breast = system: BT-549 breast
Structure (SMILES),TGI (M14 melanoma) [µM],TGI (NCI-H460 lung) [µM],TGI (IGROV1 ovarian) [µM],TGI (SN12C renal) [µM],TGI (UACC-62 melanoma) [µM],TGI (A549 NSCLC) [µM],TGI (NCI-H522 lung) [µM],TGI (SF-539 CNS) [µM],TGI (UO-31 renal) [µM],GI50 (M14 melanoma) [µM],GI50 (NCI-H460 lung) [µM],GI50 (IGROV1 ovarian) [µM],GI50 (A549 NSCLC) [µM],GI50 (UO-31 renal) [µM],GI50 (BT-549 breast) [µM],TGI (BT-549 breast) [µM],GI50 (SN12C renal) [µM],GI50 (UACC-62 melanoma) [µM],GI50 (SF-539 CNS) [µM],GI50 (NCI-H522 lung) [µM]
CCOC(OC(C)=O)[C@@H]1C=C[C@H](C)N(c2ccc([N+](=O)[O-])cc2)O1 (some centres not stated),9.44,34.2,29,22.3,7.55,43.4,8.97,8.44,9.16,,,,,,,,,,,
CSc1ccc2c(cc1=O)[C@@H](NC(=O)c1cccc([N+](=O)[O-])c1)CCc1cc(O)c(O)c(O)c1-2,> 100,> 100,> 100,88.9,39.2,> 100,68.2,62.9,> 100,,,,,,,,,,,
C=C(CCCCC)CN1CCCC1C(C)=O (configuration not stated),> 100,> 85.3,> 100,98.6,> 100,> 100,34.7,> 100,> 100,,,,,,,,,,,
Cc1ccc(C)c(N2C(=O)C(=O)C(c3nc4ccccc4s3)/C(=N/N)C2=O)c1 (configuration not stated),> 100,> 100,> 100,> 100,> 100,> 100,> 100,> 100,> 100,,,,,,,,,,,
COc1cc2cc(OC(C)=O)c3cc4c(cc3c2c(OC)c1OC)OCO4,> 100,> 100,> 100,> 100,,> 100,> 100,> 100,> 100,,,,,,,,,,,
COc1ccc(Cc2c3cc(O)c(=O)cc-3ccn2C)cc1,30.5,> 100,> 100,> 100,61,> 100,> 100,70.4,> 73,,,,,,,,,,,
C=CCC1(CN(C)C)CC/C(=C\c2ccc(OC)cc2)C1=O (configuration not stated),> 100,> 100,> 100,> 100,> 100,> 100,81.9,> 100,> 100,,,,,,,,,,,
CC(=O)Nc1ccc(/C=C/C(=O)c2sc(-c3cccnc3)nc2C)cc1,,> 100,> 100,> 100,> 100,> 100,> 100,> 100,> 100,,,,,,,,,,,
CC1(C)OC2C(CCP(=O)(O)O)OC(c3nc(C(N)=O)cs3)C2O1 (configuration not stated),> 100,> 100,> 100,> 100,> 100,> 100,> 100,,> 100,,,,,,,,,,,
CCOC(=O)c1cc(C(=O)c2ccc(OC)cc2)n2ccc(/C=C/c3cc[n+](CC(=O)c4ccc(OC)cc4)cc3)cc12,3.8,3.56,4.46,,,> 100,,,> 100,1.77,1.56,1.74,3.96,> 100,,,,,,
CN(CCS(=O)(=O)N1C(=O)C2CCCN2C(=O)[C@@H]1Cc1ccccc1)C(=O)OCc1ccccc1 (some centres not stated),> 100,> 100,> 100,> 100,95.7,> 100,> 100,> 100,> 100,,,,,,,,,,,
O=C1C=C(Nc2ccc(Cl)cc2Cl)c2ccccc2C1=O,57.8,> 100,> 100,> 100,32.8,> 100,> 100,> 100,> 100,,,,,,,,,,,
Cc1c(C)n(CCCN2CCN(C)CC2)c2ccc(Oc3cccc(C(=O)N4CCN(CCc5ccc(F)cc5)CC4)c3)cc12,,3.45,3.16,3.09,3.58,3.62,,3.03,2.52,,1.86,1.57,1.81,1.23,1.58,3.19,1.54,1.87,1.63,
COC(=O)c1cc2c(=O)n(C)c3ccccc3n2c1C(=O)OC,> 100,> 100,> 100,> 100,> 100,> 100,73.7,75.8,> 100,,,,,,,,,,,
C/C(=N\N=C(N)N)C(CN1CCCCC1)C(c1ccccc1)c1c(O)c2ccccc2oc1=O (configuration not stated),> 100,,> 100,> 100,> 100,> 100,> 100,> 100,,,,,,,,,,,,
C=C(c1ccc(OC)c(/C=C/C(=O)c2ccc3c(c2)OCO3)c1)c1cc(OC)c(OC)c(OC)c1,,6.21,> 100,> 100,> 100,> 100,4.78,7.24,> 100,,2.34,4.31,3.54,3.1,2.15,7.27,3.84,1.32,2.36,1.55
COC1CCC(OS(C)(=O)=O)C(CO)O1 (configuration not stated),> 100,> 100,> 100,> 100,> 100,> 100,> 100,> 100,> 100,,,,,,,,,,,
CCCCCCCCCCCCCCCC1=NCC[N+]1(CCO)CCO,3.01,3.47,2.63,3.92,3.27,5.35,,4,3.33,1.62,1.84,1.21,2.28,1.4,3.3,11.9,1.85,1.77,1.91,
CCN(CC)CCCNc1nccc2c(C)c3c(cc12)c1cnccc1n3C,1.12,0.14,2.75,1.75,2.25,1.37,,0.609,2.32,,,,,,,,,,,
NCCSSCc1ccccc1CSSCCN,> 100,> 100,> 100,> 100,> 100,> 100,27.8,> 100,> 100,,,,,,,,,,,

Structure (SMILES),TGI (M14 melanoma) [µM],TGI (NCI-H460 lung) [µM],TGI (IGROV1 ovarian) [µM],TGI (SN12C renal) [µM],TGI (UACC-62 melanoma) [µM],TGI (A549 NSCLC) [µM],TGI (NCI-H522 lung) [µM],TGI (SF-539 CNS) [µM],TGI (UO-31 renal) [µM],GI50 (M14 melanoma) [µM],GI50 (NCI-H460 lung) [µM],GI50 (IGROV1 ovarian) [µM],GI50 (A549 NSCLC) [µM],GI50 (UO-31 renal) [µM],GI50 (BT-549 breast) [µM],TGI (BT-549 breast) [µM],GI50 (SN12C renal) [µM],GI50 (UACC-62 melanoma) [µM],GI50 (SF-539 CNS) [µM],GI50 (NCI-H522 lung) [µM]
COc1ccc(C(=O)C(CN(C)C)CN(C)C)cc1,13.5,40.1,39.2,56.4,19.4,43.4,,20.7,2.91,3.53,19.2,15.4,19.1,1.37,15.3,28.8,12.6,5.27,7.6,
N#C/C(=C\c1cc(O)cc(O)c1)C(N)=O,> 100,> 100,> 100,> 100,> 100,> 100,66.2,> 100,> 100,,,,,,,,,,,
CNC(=O)c1c(C)oc2cc(Oc3ncnc4cc(OC)c(OC)cc34)ccc12,,> 100,> 100,> 100,> 100,> 100,> 100,> 100,,,> 100,> 100,> 100,,> 100,> 100,> 100,> 100,2.03,> 100
Cc1nc2sccn2c1C(=O)NN,,> 100,> 100,> 100,> 100,> 100,> 100,> 100,,,,,,,,,,,,
COc1ccc(C(c2ccccc2)(c2ccc(OC)cc2)N2C(=O)NC3C(CCCCC(=O)NCCCCCCOP(OCCC#N)N(C(C)C)C(C)C)SCC32)cc1 (configuration not stated),34.2,33.8,40.3,,27.4,41.8,27.3,28.1,27.5,,,,,,,,,,,
O=C(C(=O)c1cc2ccccc2[nH]1)c1cc2ccccc2[nH]1,> 347,> 347,> 347,> 347,> 347,> 347,114,> 347,> 347,,,,,,,,,,,
O=C1[C@H]2ON(c3ccccc3)C(c3ccc([N+](=O)[O-])cc3)[C@H]2C(=O)N1c1ccc(Cc2ccc(N3C(=O)[C@@H]4ON(c5ccccc5)C(c5ccc([N+](=O)[O-])cc5)[C@@H]4C3=O)cc2)cc1 (some centres not stated),38.9,> 100,> 100,> 100,> 100,> 100,> 100,> 100,> 100,,,,,,,,,,,
O=C(CN(/C=C/C(=O)C(F)(F)F)c1ccc(Cl)cc1)c1ccc(Cl)cc1,,35.3,7.96,24.2,13.4,32.1,5.93,36.9,24.8,,11.9,1.79,13.2,12,17.6,43.9,11.9,3.03,19.2,2.1
CCC[C@H]1O[C@@H]2CC(=O)O[C@@H]2C2=C1C(=O)C=CC2=O,32.8,> 100,32.1,32.6,32.3,> 58.1,4.68,33.6,32.5,,,,,,,,,,,
C=C(C)[C@H]1CC[C@@]2(C)C(C1)[C@H](C)CC[C@@H]2O (some centres not stated),> 100,> 100,> 100,> 100,> 100,> 100,> 100,> 100,> 100,,,,,,,,,,,
C=CCNC(=O)NCCCCC(NC(C)=O)C(=O)NCc1ccccc1 (configuration not stated),> 100,> 100,> 100,> 100,> 100,> 100,> 100,> 100,> 100,,,,,,,,,,,
OCC1C(OCc2ccccc2)C(OCc2ccccc2)C(OCc2ccccc2)CN1Cc1ccccc1 (configuration not stated),> 100,48.1,> 100,39.6,> 100,> 100,> 100,> 100,37.3,,,,,,,,,,,
C=CSCCC(N)C(=O)O (configuration not stated),> 100,> 100,> 100,> 100,> 100,> 100,> 100,> 100,> 100,,,,,,,,,,,
CC(C)(O)C(O)COc1c2c(cc3oc(=O)ccc13)OCO2 (configuration not stated),> 100,> 100,> 100,> 100,> 100,> 100,> 100,> 100,> 100,,,,,,,,,,,
C=C[C@@H](C)[C@]1(C(=O)OC)CCCC12OCCO2,> 100,> 100,> 100,> 100,> 100,> 100,> 100,> 100,> 100,,,,,,,,,,,
O=c1c2c(nc3n1CCS3)[nH]c1cc([N+](=O)[O-])ccc12,> 100,> 100,> 100,> 100,> 100,> 100,> 100,> 100,> 100,> 100,> 100,36.2,> 100,> 100,,,> 100,> 100,> 100,> 100
COc1ccc(Nc2nc3cc(N)cc(N)c3nc2-c2ccccc2)cc1,36.3,89.9,35.8,57.4,30.5,> 100,27.9,,34.2,17.6,26.8,15.4,27.8,16.6,13.4,31.9,20.6,16.8,,14.7
OC(CNc1ccnc2cc(Cl)ccc12)CNc1ccnc2cc(Cl)ccc12,3.18,3.52,36.8,3.7,3.37,21.2,,3.3,38,1.73,1.83,10.9,4.49,17,1.67,3.13,1.89,1.7,1.74,
COc1cc(C2C(Cl)C(=O)N2NC(=O)Cc2ccccc2)cc(Br)c1O (configuration not stated),> 100,> 100,> 100,> 100,> 100,> 100,> 100,,> 100,,,,,,,,,,,
NC(=O)NNC(=O)CCn1[nH]c(=O)c(Cl)c(Cl)c1=O,> 100,> 100,> 100,> 100,> 100,> 100,> 100,,> 100,,,,,,,,,,,
